These results are taken from patent publication US8969386B2, “Modulators of CFTR” (Vertex Pharmaceuticals Incorporated, priority 2007, dated 2015).

The structures appear in SMILES notation. Some results are limits rather than exact numbers.

The experiment has as its target T1, ΔF508-CFTR (Homo sapiens, UniProt P13569, DEL508-508).
T1 construct: expressed in transfected cells
In words: ΔF508-CFTR correction, membrane potential optical (FRET/VIPR) assay. Format: cell-based. To be noted: NIH3T3 mouse fibroblasts stably expressing ΔF508-CFTR; for Emax: read-out: % Efficacy. From the text:
Assays for Detecting and Measuring ΔF508-CFTR Correction Properties of Compounds
Membrane potential optical methods for assaying ΔF508-CFTR modulation properties of compounds
The optical membrane potential assay utilized voltage-sensitive FRET sensors described by Gonzalez and Tsien (See Gonzalez, J. E. and R. Y. Tsien (1995) “Voltage sensing by fluorescence resonance energy transfer in single cells” Biophys J 69(4): 1272-80, and Gonzalez, J. E. and R. Y. Tsien (1997) “Improved indicators of cell membrane potential that use fluorescence resonance energy transfer” Chem Biol 4(4): 269-77) in combination with instrumentation for measuring fluorescence changes such as the Voltage/Ion Probe Reader (VIPR) (See Gonzalez, J. E., K. Oades, et al. (1999) “Cell-based assays and instrumentation for screening ion-channel targets” Drug Discov Today 4(9): 431-439).
These voltage sensitive assays are based on the change in fluorescence resonant energy transfer (FRET) between the membrane-soluble, voltage-sensitive dye, DiSBAC2(3), and a fluorescent phospholipid, CC2-DMPE, which is attached to the outer leaflet of the plasma membrane and acts as a FRET donor. Changes in membrane potential (Vm) cause the negatively charged DiSBAC2(3) to redistribute across the plasma membrane and the amount of energy transfer from CC2-DMPE changes accordingly. The changes in fluorescence emission were monitored using VIPR™ II, which is an integrated liquid handler and fluorescent detector designed to conduct cell-based screens in 96- or 384-well microtiter plates.
1. Identification of Correction Compounds
To identify small molecules that correct the trafficking defect associated with ΔF508-CFTR; a single-addition HTS assay format was developed. The cells were incubated in serum-free medium for 16 hrs at 37° C. in the presence or absence (negative control) of test compound. As a positive control, cells plated in 384-well plates were incubated for 16 hrs at 27° C. to “temperature-correct” ΔF508-CFTR. The cells were subsequently rinsed 3× with Krebs Ringers solution and loaded with the voltage-sensitive dyes. To activate ΔF508-CFTR, 10 μM forskolin and the CFTR potentiator, genistein (20 μM), were added along with Cl^−-free medium to each well. The addition of Cl^−-free medium promoted Cl^− efflux in response to ΔF508-CFTR activation and the resulting membrane depolarization was optically monitored using the FRET-based voltage-sensor dyes.
NIH3T3 mouse fibroblasts stably expressing ΔF508-CFTR are used for optical measurements of membrane potential. The cells are maintained at 37° C. in 5% CO2 and 90% humidity in Dulbecco's modified Eagle's medium supplemented with 2 mM glutamine, 10% fetal bovine serum, 1×NEAA, β-ME, 1× pen/strep, and 25 mM HEPES in 175 cm^2 culture flasks. For all optical assays, the cells were seeded at 30,000/well in 384-well matrigel-coated plates and cultured for 2 hrs at 37° C. before culturing at 27° C. for 24 hrs for the potentiator assay. For the correction assays, the cells are cultured at 27° C. or 37° C. with and without compounds for 16-24 hours Electrophysiological Assays for assaying ΔF508-CFTR modulation properties of compounds

T1 sequence (P13569 with tags, fused parts or gaps DEL508-508): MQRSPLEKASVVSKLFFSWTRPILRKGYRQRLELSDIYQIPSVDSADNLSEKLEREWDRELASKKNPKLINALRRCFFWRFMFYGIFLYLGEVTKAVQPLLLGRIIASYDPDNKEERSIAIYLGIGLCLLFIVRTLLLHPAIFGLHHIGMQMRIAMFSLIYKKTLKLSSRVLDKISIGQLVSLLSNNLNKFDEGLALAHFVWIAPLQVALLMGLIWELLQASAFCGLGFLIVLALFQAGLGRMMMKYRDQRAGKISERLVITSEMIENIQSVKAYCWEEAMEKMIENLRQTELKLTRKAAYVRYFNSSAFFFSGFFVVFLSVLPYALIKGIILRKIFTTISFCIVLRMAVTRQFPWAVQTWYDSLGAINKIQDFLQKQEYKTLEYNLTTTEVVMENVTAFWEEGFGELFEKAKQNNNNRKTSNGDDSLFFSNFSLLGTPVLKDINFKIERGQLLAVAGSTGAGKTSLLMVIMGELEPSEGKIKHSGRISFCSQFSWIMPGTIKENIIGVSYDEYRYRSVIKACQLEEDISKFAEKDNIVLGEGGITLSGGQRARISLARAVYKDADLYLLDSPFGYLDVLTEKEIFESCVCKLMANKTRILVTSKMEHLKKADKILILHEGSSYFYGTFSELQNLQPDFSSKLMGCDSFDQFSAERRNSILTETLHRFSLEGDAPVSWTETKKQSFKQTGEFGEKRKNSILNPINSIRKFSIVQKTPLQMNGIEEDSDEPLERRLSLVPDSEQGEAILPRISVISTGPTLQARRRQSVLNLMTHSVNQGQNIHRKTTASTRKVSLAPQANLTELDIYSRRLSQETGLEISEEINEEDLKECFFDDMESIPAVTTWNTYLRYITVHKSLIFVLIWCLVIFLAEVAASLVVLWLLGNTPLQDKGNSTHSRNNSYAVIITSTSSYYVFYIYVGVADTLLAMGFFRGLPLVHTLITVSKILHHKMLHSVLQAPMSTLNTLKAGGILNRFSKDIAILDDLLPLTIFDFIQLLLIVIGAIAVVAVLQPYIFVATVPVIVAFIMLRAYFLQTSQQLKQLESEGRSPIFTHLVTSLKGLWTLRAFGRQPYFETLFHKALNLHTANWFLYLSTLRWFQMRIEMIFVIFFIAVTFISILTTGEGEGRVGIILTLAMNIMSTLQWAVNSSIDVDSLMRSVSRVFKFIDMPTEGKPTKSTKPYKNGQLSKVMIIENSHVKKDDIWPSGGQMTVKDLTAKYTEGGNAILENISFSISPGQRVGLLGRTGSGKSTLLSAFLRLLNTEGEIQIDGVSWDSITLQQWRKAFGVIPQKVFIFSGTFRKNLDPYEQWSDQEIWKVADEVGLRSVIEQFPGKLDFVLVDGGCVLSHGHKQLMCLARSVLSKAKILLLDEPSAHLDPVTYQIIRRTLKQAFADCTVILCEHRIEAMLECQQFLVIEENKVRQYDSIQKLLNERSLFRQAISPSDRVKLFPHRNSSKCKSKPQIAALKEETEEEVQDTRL

Turning to `Cc1ccc(NC(=O)C2(c3ccc4c(c3)OC(F)(F)O4)CC2)nc1-c1c[nH]c(=O)c(CO)c1` [Compound 1], the concentration for a half-maximal effect (EC50) was less than 2000 nM and the Emax was in the range of 50 to 100%.

For the compound `COc1ccc(C2(C(=O)Nc3ccc(C)c(-c4ccc(OC)nc4)n3)CC2)cc1` [Compound 2], the EC50 is less than 2000 nM and the Emax is 50 to 100%.

As to `COc1cc(-c2cc(C)cc(NC(=O)C3(c4ccc5c(c4)OC(F)(F)O5)CC3)n2)ccn1` [Compound 3], the EC50 is less than 2000 nM and the Emax was greater than 100%.

Regarding `CC(=O)Nc1cc(-c2nc(NC(=O)C3(c4ccc5c(c4)OC(F)(F)O5)CC3)ccc2C)c[nH]c1=O` [Compound 4], the EC50 was less than 2000 nM and the Emax was 50 to 100%.

For `CCc1ccc(NC(=O)C2(c3ccc4c(c3)OC(F)(F)O4)CC2)nc1-c1ccc(=O)[nH]c1` [Compound 5], the EC50 was less than 2000 nM and the Emax lay in the range of 50 to 100%.

On to `Cc1ccc(NC(=O)C2(c3ccc4c(c3)OC(F)(F)O4)CC2)nc1-c1c[nH]c(=O)c(C)c1` [Compound 6], for which the EC50 was less than 2000 nM and the Emax was greater than 100%.

Regarding `COc1ccc(C2(C(=O)Nc3ccc(C)c(-c4cccnc4OC)n3)CC2)cc1` [Compound 7], the 50% effective concentration (EC50) is less than 2000 nM and the Emax was 50 to 100%.

On to `COc1ncc(C)cc1-c1nc(NC(=O)C2(c3ccc4c(c3)OC(F)(F)O4)CC2)ccc1C` [Compound 8], for which the half-maximal effective concentration (EC50) is less than 2000 nM and the Emax lay in the range of 50 to 100%.

Regarding `COc1ncc(-c2nc(NC(=O)C3(c4ccc5c(c4)OC(F)(F)O5)CC3)ccc2C)cc1N` [Compound 9], the half-maximal effective concentration (EC50) was less than 2000 nM and the Emax is greater than 100%.

On to `COc1ccc(C2(C(=O)Nc3ccc(C)c(-c4ccc[nH]c4=O)n3)CC2)cc1` [Compound 10], for which the EC50 is less than 2000 nM and the Emax was in the range of 50 to 100%.

For the compound `COc1cc(-c2nc(NC(=O)C3(c4ccc5c(c4)OC(F)(F)O5)CC3)ccc2C)ccn1` [Compound 11], the EC50 is less than 2000 nM and the Emax is greater than 100%.

Regarding `Cc1ccc(NC(=O)C2(c3ccc4c(c3)OC(F)(F)O4)CC2)nc1-c1ccc(=O)[nH]c1` [Compound 12], the EC50 is less than 2000 nM and the Emax lay in the range of 50 to 100%.

As for `Cc1ccc(NC(=O)C2(c3ccc4c(c3)OC(F)(F)O4)CC2)nc1-c1ccc(=O)n(CC(=O)O)c1` [Compound 13], the 50% effective concentration (EC50) is greater than 5000 nM and the Emax is 50 to 100%.

On to `Cc1cc(=O)[nH]cc1-c1nc(NC(=O)C2(c3ccc4c(c3)OC(F)(F)O4)CC2)ccc1C` [Compound 14], for which the EC50 is less than 2000 nM and the Emax fell in the range of 50 to 100%.

With `COc1ncccc1-c1nc(NC(=O)C2(c3ccc4c(c3)OC(F)(F)O4)CC2)ccc1C` [Compound 15], the EC50 was less than 2000 nM and the Emax was greater than 100%.

As for `COC(=O)Cn1ccc(-c2nc(NC(=O)C3(c4ccc5c(c4)OC(F)(F)O5)CC3)ccc2C)cc1=O` [Compound 16], the concentration giving a half-maximal response (EC50) was less than 2000 nM and the Emax lay in the range of 50 to 100%.

For `Cc1cc(NC(=O)C2(c3ccc4c(c3)OC(F)(F)O4)CC2)nc(-c2ccc[nH]c2=O)c1` [Compound 17], the EC50 is less than 2000 nM and the Emax is greater than 100%.

On to `COc1cc(C)c(-c2nc(NC(=O)C3(c4ccc5c(c4)OC(F)(F)O5)CC3)ccc2C)cn1` [Compound 18], for which the EC50 was less than 2000 nM and the Emax was greater than 100%.

For `Cc1cc(NC(=O)C2(c3ccc4c(c3)OC(F)(F)O4)CC2)nc(-c2cc[nH]c(=O)c2)c1` [Compound 19], the EC50 was less than 2000 nM and the Emax was greater than 100%.

In the case of `Cc1ccc(NC(=O)C2(c3ccc4c(c3)OC(F)(F)O4)CC2)nc1-c1ccc(=O)n(CCO)c1` [Compound 20], the EC50 is less than 2000 nM and the Emax was greater than 100%.

With `COc1cc(-c2nc(NC(=O)C3(c4ccc5c(c4)OC(F)(F)O5)CC3)ccc2C)c[nH]c1=O` [Compound 21], the EC50 was less than 2000 nM and the Emax was 50 to 100%.

Take `O=C(Nc1ccc(Cl)c(-c2ccc(=O)[nH]c2)n1)C1(c2ccc3c(c2)OC(F)(F)O3)CC1` [Compound 22]: the EC50 was less than 2000 nM and the Emax was in the range of 50 to 100%.

Regarding `Cc1ccc(NC(=O)C2(c3ccc4c(c3)OC(F)(F)O4)CC2)nc1-c1c[nH]c(=O)c(C(=O)O)c1` [Compound 23], the EC50 was 2000 to 5000 nM and the Emax lay in the range of 50 to 100%.

With `COc1ccc(-c2nc(NC(=O)C3(c4ccc5c(c4)OC(F)(F)O5)CC3)ccc2Cl)cn1` [Compound 24], the EC50 is less than 2000 nM and the Emax was greater than 100%.

Regarding `Cc1ccc(NC(=O)C2(c3ccc4c(c3)OC(F)(F)O4)CC2)nc1-c1c[nH]c(=O)c(Cl)c1` [Compound 25], the concentration giving a half-maximal response (EC50) was less than 2000 nM and the Emax is greater than 100%.

On to `COc1ccc(C2(C(=O)Nc3ccc(C)c(-c4cc[nH]c(=O)c4)n3)CC2)cc1` [Compound 26], for which the concentration giving a half-maximal response (EC50) is less than 2000 nM and the Emax lay in the range of 50 to 100%.

As to `Cc1cc(NC(=O)C2(c3ccc4c(c3)OC(F)(F)O4)CC2)nc(-c2ccc(=O)[nH]c2)c1` [Compound 27], the half-maximal effective concentration (EC50) is less than 2000 nM and the Emax is greater than 100%.

For the compound `Cc1ccc(NC(=O)C2(c3ccc4c(c3)OC(F)(F)O4)CC2)nc1-c1ccc(=O)[nH]c1O` [Compound 28], the concentration giving a half-maximal response (EC50) was less than 2000 nM and the Emax was in the range of 50 to 100%.

With `Cc1ccc(NC(=O)C2(c3ccc4c(c3)OC(F)(F)O4)CC2)nc1-c1ccn(CCO)c(=O)c1` [Compound 29], the half-maximal effective concentration (EC50) is less than 2000 nM and the Emax was greater than 100%.

In the case of `CCc1ccc(NC(=O)C2(c3ccc4c(c3)OC(F)(F)O4)CC2)nc1-c1ccc(OC)nc1` [Compound 30], the EC50 was less than 2000 nM and the Emax lay in the range of 50 to 100%.

Take `Cc1c[nH]c(=O)c(-c2nc(NC(=O)C3(c4ccc5c(c4)OC(F)(F)O5)CC3)ccc2C)c1` [Compound 31]: the EC50 is less than 2000 nM and the Emax fell in the range of 50 to 100%.

As to `CNC(=O)c1cc(-c2nc(NC(=O)C3(c4ccc5c(c4)OC(F)(F)O5)CC3)ccc2C)c[nH]c1=O` [Compound 32], the concentration for a half-maximal effect (EC50) lay in the range of 2000 to 5000 nM and the Emax fell in the range of 50 to 100%.

For the compound `COc1ncc(-c2nc(NC(=O)C3(c4ccc5c(c4)OC(F)(F)O5)CC3)ccc2C)cc1NC(C)=O` [Compound 33], the EC50 was less than 2000 nM and the Emax is greater than 100%.

Take `Cc1ccc(NC(=O)C2(c3ccc4c(c3)OC(F)(F)O4)CC2)nc1-c1c[nH]c(=O)c(C(N)=O)c1` [Compound 34]: the EC50 lay within 2000 to 5000 nM and the Emax is 50 to 100%.

Take `COc1cccc(-c2nc(NC(=O)C3(c4ccc5c(c4)OC(F)(F)O5)CC3)ccc2C)n1` [Compound 35]: the EC50 is less than 2000 nM and the Emax is 50 to 100%.

Regarding `COc1ccc(-c2nc(NC(=O)C3(c4ccc5c(c4)OC(F)(F)O5)CC3)ccc2C)c(C)n1` [Compound 36], the concentration for a half-maximal effect (EC50) was less than 2000 nM and the Emax was greater than 100%.

On to `COc1ccc(-c2nc(NC(=O)C3(c4ccc5c(c4)OC(F)(F)O5)CC3)ccc2C)cn1` [Compound 37], for which the EC50 is less than 2000 nM and the Emax was greater than 100%.

Regarding `COc1ccc(-c2cc(C)cc(NC(=O)C3(c4ccc5c(c4)OC(F)(F)O5)CC3)n2)cn1` [Compound 38], the concentration giving a half-maximal response (EC50) was less than 2000 nM and the Emax is greater than 100%.

As for `Cc1ccc(NC(=O)C2(c3ccc4c(c3)OC(F)(F)O4)CC2)nc1-c1c[nH]c(=O)c(F)c1` [Compound 39], the EC50 was less than 2000 nM and the Emax was in the range of 50 to 100%.

Regarding `Cc1ccc(NC(=O)C2(c3ccc4c(c3)OC(F)(F)O4)CC2)nc1-c1ccc(=O)[nH]c1C` [Compound 40], the concentration for a half-maximal effect (EC50) is less than 2000 nM and the Emax is greater than 100%.

`Cc1ccc(NC(=O)C2(c3ccc4c(c3)OC(F)(F)O4)CC2)nc1-c1ccn(C)c(=O)c1` [Compound 41]: the EC50 is less than 2000 nM and the Emax is greater than 100%.

Take `Cc1ccc(NC(=O)C2(c3ccc4c(c3)OC(F)(F)O4)CC2)nc1-c1c[nH]c(=O)c(C#N)c1` [Compound 42]: the EC50 is less than 2000 nM and the Emax was in the range of 50 to 100%.
